Results published in PMC5613698 (Biochemistry and Biophysics Reports, 2016).
Where a name gives a salt, the structure may show the parent alone.

System: trypsin from L. alexandri pyloric cecum (Pacamã trypsin)
Assay: p-nitroaniline release at […] nm, Lineweaver-Burk
Assay type: biochemical, Lophiosilurus alexandri
Conditions: optimum pH (9.0) and temperature (50 °C), 90 min, BAPNA 0-6.0 mM

- Km: 517 µM
SMILES: N=C(N)NCCCC(NC(=O)c1ccccc1)C(=O)Nc1ccc([N+](=O)[O-])cc1 (racemic) [BAPNA, Nα-Benzoyl-D,L-arginine 4-nitroanilide hydrochloride]
